# Calls of active or inactive are those of the source. No cut-off for these calls is given here.
# Legend:
# [1] = (§1) Estrogenic activity in human ERalpha expressing MCF7:WS8 cells assessed as stimulation of cell proliferation after 7 days; format: functional
# MCF7:WS8 = assay: as §1; format: functional
# [2] = Antiestrogenic activity in human ERalpha expressing MCF7:WS8 cells assessed as inhibition of estradiol-induced proliferation at 1 uM after 7 days; format: functional, cell-based
SMILES,EC50 ([1]; mcf7:ws8),Activity (MCF7:WS8),inhibition [2],"EC50 ([1]; Homo sapiens, MCF7:WS8, 168 h, read-out: EC50) [nM]"
C[C@]12CC[C@@H]3c4ccc(O)cc4CC[C@H]3[C@@H]1CC[C@@H]2O [ESTRADIOL],0.001 nM,–,–,–
CCC(=C(c1ccc(O)cc1)c1ccc(OCCN(C)C)cc1)c1ccccc1,–,inactive,Active,–
CCC(=C(c1ccc(O)cc1)c1ccc(O)cc1)c1ccc(O)cc1,1.5 10^-1nmol,–,inactive,–
CC/C(=C(\c1ccc(O)cc1)c1ccc(OCCNC)cc1)c1ccccc1,–,inactive,Active,–
CCC(=C(c1ccc(O)cc1)c1ccc(O)cc1)c1ccccc1,5 10^-2nmol,–,–,–
CC/C(=C(/c1ccccc1)c1ccc(O)cc1)c1ccc(O)cc1,1 10^-1nmol,–,–,–
CC/C(=C(/c1ccc(O)cc1)c1ccc(OCCN(C)C)cc1)c1ccccc1,–,inactive,–,–
CC/C(=C(\c1ccccc1)c1ccc(O)cc1)c1ccc(O)cc1,1 10^-1nmol,–,–,–
CCOc1ccc(/C(=C(/CC)c2ccc(O)cc2)c2ccc(O)cc2)cc1,–,–,inactive,4

# Reference: ChEMBL document CHEMBL1156189, “Structure-function relationships of estrogenic triphenylethylenes related to endoxifen and 4-hydroxytamoxifen” (J Med Chem, 2010)
